Laboratory results: patent publication US20100004330A1, “ANTI-OXIDATIVE CONTENT MATERIAL USED IN DRINK AND FOOD MANUFACTURING METHOD” (priority 2008, published 2010)

Tests used:
macular degeneration = conditions: person ingesting 6 mg per day; cited from earlier work
[1] = antioxidant activity testing (DPPH scavenging activity); assay type: biochemical; conditions: corresponds to ppm VitE
From the text: According to the present invention, the products of the Beta-carotene, lutein, lycopene, and of mixture of these three (in 0.5:4:4 optimal weight ratio) from the Allied Biochemical Industrial Co., Ltd were sent to “Food Industrial Research And Development Institute” (331 Shih-Pin Road, Hsinchu, 300 Taiwan) for antioxidant activity testing (DPPH scavenging activity).

tissue factor = conditions: added into micro-emulsion; 0.5, 2 and 10 μmol/L; P<0.01; cited from earlier work
[2] = system: thiobarbituric acid-reactive substances (TBARS), lipid peroxidation; conditions: single carotenoid; Control (no antioxidants) 100 ± 9; cited from earlier work
myocardial infarction = conditions: contrast of the 10th and 90th percentiles of carotenoid level in adipose tissue; cited from earlier work
cardiovascular disease = conditions: middle-aged or elderly; cited from earlier work

SMILES	lower risk for macular degeneration (macular degeneration) [%]	Scavenging rate/g [1]	tissue factor activity (tissue factor)	TBARS (%) measured [2] [%]	odds ratio, myocardial infarction (myocardial infarction)	reduction of the risk of cardiovascular disease (cardiovascular disease) [%]
CC1=C[C@H](O)CC(C)(C)[C@H]1/C=C/C(C)=C/C=C/C(C)=C/C=C/C=C(C)/C=C/C=C(C)/C=C/C1=C(C)C[C@@H](O)CC1(C)C [Lutein]	43	correspond to 7.69 × 10^2 ppm VitE	suppress tissue factor activity	77 ± 9		
CC(C)=CCC/C(C)=C/C=C/C(C)=C/C=C/C(C)=C/C=C/C=C(C)/C=C/C=C(C)/C=C/C=C(\C)CCC=C(C)C [Lycopene]		correspond to 2.35 × 10^4 ppm VitE	suppress tissue factor activity	25 ± 10	0.52	
CC1=C(/C=C/C(C)=C/C=C/C(C)=C/C=C/C=C(C)/C=C/C=C(C)/C=C/C2=C(C)CCCC2(C)C)C(C)(C)CCC1 [β-carotene]		correspond to 7.08 × 10^3 ppm VitE	suppress tissue factor activity	73 ± 9		45
